Experimental data from article PMC6647725 (Analytical and Bioanalytical Chemistry, 2019).

How the values were obtained:
[1] = Stability in human plasma and its final extract (LC-MS/MS); format: in vitro ADME
Method: (§1) 50 μL of the sample (either from a preclinical study, calibration standard, or QC) was mixed with 25 μL of IS-working solution, followed by 150 μL of ACN for protein precipitation. Samples were vortex mixed and centrifuged at 23,100g for 10 min at 20 °C. An aliquot of 80 μL of supernatant was diluted with 120 μL of 10 mM ammonium bicarbonate in water:MeOH (1:1 v/v). The final extract was transferred to a glass vial with insert, and 10 μL was injected to the LC-MS/MS system for analysis.
(§2) The stability of each analyte was investigated in all the previously mentioned matrices. For plasma (both human and mouse), the stability was determined in triplicate at two concentration levels, QC L and QC H, whereas for mouse tissue homogenates only at QC M (except the brain in one stability condition). For all matrices, the following stability conditions were assessed: short term at room temperature (RT), long term at − 20 °C, and after 3 freeze-thaw (F/T) cycles at − 20 °C/RT. Furthermore, for tissue homogenates, the short-term stability in ice-water, long-term stability at − 70 °C, and F/T stability at − 70 °C/ice-water were also evaluated. Additionally, the stability in the final extract was tested. […] Lastly, the stability of the stock solutions at − 20 °C was investigated.

[2] = Stability in mouse plasma and its final extract (LC-MS/MS); format: in vitro ADME
Method: as §1, §2

[3] = Stability in mouse liver homogenate and its final extract; format: in vitro ADME; conditions: nominal 50 ng/mL
Method: (§3) After weighing the complete organ, a volume of 3 mL of this solution was added to the liver and small intestine, 2 mL to the kidneys, and 1 mL to the brain and spleen. The tissue/BSA ratio (w/v) of the homogenates were approximately 0.4:1 for the brain and liver, 0.1:1 for the spleen, 0.2:1 for the kidneys, and 0.25:1 for the small intestine. All samples were shaken in the Fast Prep at 6.0 m/s during 60 s. The stability of each analyte was investigated in all the previously mentioned matrices. For plasma (both human and mouse), the stability was determined in triplicate at two concentration levels, QC L and QC H, whereas for mouse tissue homogenates only at QC M (except the brain in one stability condition). For all matrices, the following stability conditions were assessed: short term at room temperature (RT), long term at − 20 °C, and after 3 freeze-thaw (F/T) cycles at − 20 °C/RT. Furthermore, for tissue homogenates, the short-term stability in ice-water, long-term stability at − 70 °C, and F/T stability at − 70 °C/ice-water were also evaluated. Additionally, the stability in the final extract was tested. For this, the QC L and QC H final extracts from the plasma, brain, and spleen and the QC M final extract from the liver, kidney and small intestine were stored at 4–8 °C up to 3 days. Lastly, the stability of the stock solutions at − 20 °C was investigated.

[4] = Stability in mouse spleen homogenate and its final extract; format: in vitro ADME
Method: as §3

[5] = Stability in mouse kidney homogenate and its final extract; format: in vitro ADME; conditions: nominal 50 ng/mL
Method: as §3

[6] = Stability in mouse brain homogenate and its final extract; format: in vitro ADME
Method: as §3

[7] = Plasma pharmacokinetics in mice after oral administration; format: in vivo, mouse (FVB); conditions: FVB, po; mouse plasma, 10 mg/kg orally administered, t = 24 h; read-out: plasma concentration of representative sample
Method: This method was developed to support pharmacokinetic and tissue distribution studies of the CDK4/6 inhibitors in mice (FVB background). These studies were done separately for each drug. Animal housing and studies were conducted according to institutional guidelines complying with Dutch and European Union legislation (approval number from The Dutch Central Animal Testing Committee: AVD301002016595). […] Approximately 50 μL of blood was collected from the tip of the tail at several time points, except at the last one, when 500–1000 μL of blood was collected by cardiac puncture under isoflurane anesthesia. […] Mice were sacrificed by cervical dislocation and the organs were collected and weighed. Plasma was obtained using sodium heparin as anticoagulant after centrifugation at 9000g, 4 °C, for 6 min. When necessary, 10 μL of mouse plasma was diluted with 40 μL of human plasma. The tissue homogenates were prepared according to the procedure described in the “Tissue homogenate preparation” section. Plasma and tissue homogenate samples were stored at − 20 and − 70 °C, respectively, until the LC-MS/MS analysis was performed.

CDK4 = conditions: cited from earlier work
[8] = final extract (listed under human plasma), 4–8 °C, 4 d, nominal 5 ng/mL
[9] = final extract (listed under human plasma), 4–8 °C, 4 d, nominal 150 ng/mL
[10] = human plasma, RT, 3 d, nominal 150 ng/mL
[11] = final extract (listed under mouse plasma), 4–8 °C, 4 d, nominal 5 ng/mL
[12] = final extract (listed under mouse plasma), 4–8 °C, 4 d, nominal 150 ng/mL
[13] = mouse plasma, 3 F/T (− 20 °C/RT), nominal 5 ng/mL
[14] = mouse plasma, 3 F/T (− 20 °C/RT), nominal 150 ng/mL
[15] = mouse plasma, RT, 3 d, nominal 150 ng/mL
[16] = mouse plasma, − 20 °C, 3 m, nominal 5 ng/mL
[17] = mouse plasma, − 20 °C, 3 m, nominal 150 ng/mL
[18] = liver homogenate, 3 F/T (RT, − 20 °C)
[19] = liver homogenate, 3 F/T (− 70 °C, ice/water bath)
[20] = liver homogenate, LT − 20 °C, 1 m
[21] = liver homogenate, LT − 70 °C, 1 m
[22] = liver homogenate, ice/water bath, 3 h
[23] = final extract (listed under spleen homogenate), 4–8 °C, 3 d, nominal 5 ng/mL
[24] = final extract (listed under spleen homogenate), 4–8 °C, 3 d, nominal 150 ng/mL
[25] = spleen homogenate, 3 F/T (− 70 °C, ice/water bath), nominal 50 ng/mL
[26] = spleen homogenate, LT − 70 °C, 1 m, nominal 50 ng/mL
[27] = spleen homogenate, RT, 3 h, nominal 50 ng/mL
[28] = spleen homogenate, ice/water bath, 3 h, nominal 50 ng/mL
[29] = kidney homogenate, 3 F/T (− 70 °C, ice/water bath)
[30] = kidney homogenate, LT − 70 °C, 1 m
[31] = brain homogenate, 3 F/T (RT, − 20 °C), nominal 50 ng/mL
[32] = brain homogenate, 3 F/T (− 70 °C, ice/water bath), nominal 50 ng/mL
[33] = brain homogenate, LT − 20 °C, 1 m, nominal 50 ng/mL
[34] = brain homogenate, LT − 70 °C, 1 m, nominal 50 ng/mL
[35] = brain homogenate, RT, 1 d, nominal 5 ng/mL
[36] = brain homogenate, RT, 1 d, nominal 150 ng/mL
[37] = brain homogenate, ice/water bath, 3 h, nominal 50 ng/mL
[38] = final extract (listed under brain homogenate), 4–8 °C, 3 d, nominal 150 ng/mL

CCN1CCN(Cc2ccc(Nc3ncc(F)c(-c4cc(F)c5nc(C)n(C(C)C)c5c4)n3)nc2)CC1 [Abemaciclib]
Accuracy (% Bias) [1, 8]: 4.5%
Accuracy (% Bias) [1, 9]: 7.1%
Accuracy (% Bias) [1, 10]: 6.2%
Accuracy (% Bias) [2, 11]: 8.1%
Accuracy (% Bias) [2, 12]: 5.1%
Accuracy (% Bias) [2, 13]: 4.3%
Accuracy (% Bias) [2, 14]: 7.6%
Accuracy (% Bias) [2, 15]: 6.2%
Accuracy (% Bias) [2, 16]: 1.0%
Accuracy (% Bias) [2, 17]: 21.8%
Accuracy (% Bias) [3, 18]: 5.0%
Mean concentration [3, 18]: 52.5 ng/mL
Accuracy (% Bias) [3, 19]: 0.1%
Mean concentration [3, 19]: 50.0 ng/mL
Accuracy (% Bias) [3, 20]: 1.4%
Mean concentration [3, 20]: 50.7 ng/mL
Accuracy (% Bias) [3, 21]: 1.2%
Mean concentration ([3]; liver homogenate, RT, 1 d): 47.9 ng/mL
Accuracy (% Bias) [3, 22]: 3.8%
Mean concentration [3, 22]: 51.9 ng/mL
Accuracy (% Bias) [4, 23]: 10.7%
Accuracy (% Bias) [4, 24]: 4.2%
Mean concentration ([4]; spleen homogenate, 3 F/T (RT, − 20 °C), nominal 50 ng/mL): 48.7 ng/mL
Accuracy (% Bias) [4, 25]: 12.1%
Mean concentration [4, 25]: 56.1 ng/mL
Mean concentration ([4]; spleen homogenate, LT − 20 °C, 1 m, nominal 50 ng/mL): 48.6 ng/mL
Accuracy (% Bias) [4, 26]: 3.5%
Mean concentration [4, 26]: 51.8 ng/mL
Accuracy (% Bias) [4, 27]: 3.4%
Mean concentration [4, 27]: 51.7 ng/mL
Mean concentration ([4]; spleen homogenate, RT, 1 d, nominal 50 ng/mL): 46.5 ng/mL
Accuracy (% Bias) [4, 28]: 4.9%
Mean concentration [4, 28]: 52.4 ng/mL
Mean concentration ([5]; kidney homogenate, 3 F/T (RT, − 20 °C)): 49.5 ng/mL
Accuracy (% Bias) [5, 29]: 3.6%
Mean concentration [5, 29]: 51.8 ng/mL
Mean concentration ([5]; kidney homogenate, LT − 20 °C, 1 m): 49.0 ng/mL
Accuracy (% Bias) [5, 30]: 5.5%
Mean concentration [5, 30]: 52.7 ng/mL
Accuracy (% Bias) ([5]; kidney homogenate, RT, 3 h): 1.7%
Mean concentration ([5]; kidney homogenate, RT, 3 h): 50.9 ng/mL
Mean concentration ([5]; kidney homogenate, RT, 1 d): 43.3 ng/mL
Mean concentration ([5]; kidney homogenate, ice/water bath, 3 h): 49.3 ng/mL
Accuracy (% Bias) [6, 31]: 6.9%
Mean concentration [6, 31]: 53.4 ng/mL
Accuracy (% Bias) [6, 32]: 2.2%
Mean concentration [6, 32]: 51.1 ng/mL
Accuracy (% Bias) [6, 33]: 3.9%
Mean concentration [6, 33]: 52.0 ng/mL
Accuracy (% Bias) [6, 34]: 4.3%
Mean concentration [6, 34]: 52.1 ng/mL
Accuracy (% Bias) [6, 35]: 6.2%
Mean concentration [6, 35]: 5.3 ng/mL
Accuracy (% Bias) [6, 36]: 11.3%
Mean concentration [6, 36]: 167 ng/mL
Accuracy (% Bias) [6, 37]: 10.4%
Mean concentration [6, 37]: 55.2 ng/mL
Accuracy (% Bias) [6, 38]: 8.7%
concentration at 24 h [7]: 74.3 ng/mL
